In experiment [1] the test system is female Aedes aegypti. Description: Flight tunnel mosquito bioassay. Type of experiment: in vivo. The conditions noted are these: for fed (mean of triplicates) / probed (mean of triplicates): paired with control; for feeding attraction, in words: three different concentrations. As to the method: Mosquitoes: Aedes aegypti (Liverpool) were reared in an insectary using standard rearing procedures. Approximately 50 larvae were reared in plastic cups (13×7×7.5 cm) at 27±1° C., and were fed ground up fish pellets. Adults were contained in plastic cartons covered by nylon screening and were fed using cotton pads soaked in a 10% glucose solution. Prior to blood feeding, 20 adult females, approximately 6 to 8 days old, were aspirated out of the rearing cartons and placed in to a stock cage (20×20×20 cm). Flight Tunnel Mosquito Bioassay: The assay system consists of a six well reservoir placed at the upwind end of a flight tunnel ([…]). Temperature and humidity of the flight tunnel were maintained at rearing conditions as described above. Air was constantly pushed through the flight tunnel at a wind speed of 35 ft/min. The four center wells of the six well reservoir were utilized in these bioassays. One of the 3 cm×4 cm wells contained 6 ml of citrate-phosphate-dextrose-adenine (CPDA) solution and three wells contained 6 ml of CPDA solution supplemented with adenosine triphosphate (ATP) (Sigma Chemical Co., St. Louis, Mo.). A constant-temperature water circulator warmed the reservoir to 38° C. A collagen membrane (Devro, Sandy Run, S.C.) was placed over the wells and secured to the reservoir with a light coat of high-vacuum grease (Dow Corning Corp., Midland, Mich.). The membranes were replaced after each replicate observation and additional substrate was added as needed. The reservoir and CPDA solution was used for one replicate. Twenty mosquitoes were aspirated into a cylindrical release canister (20.5 mm×7 mm) containing a mesh screen on one end and a damper on the opposite end (Precision Plastics, Inc., Beltsville, Md.). Mosquitoes were allowed to acclimate in the canister for ten minutes and then were utilized in bioassays. The canister was placed downwind of the reservoir in the flight tunnel. Human breath was introduced in a plume into the tunnel for one minute prior to opening of the release canister. Mosquitoes were then released into the flight tunnel where the number of mosquitoes biting (proboscis inserted through the membrane) within each cell during the 10-min exposure was recorded. The solution in each well consisted of either CPDA in deionized water or one of the three experimental solutions, 10^−2M, 10^−3 M, or 10^−4 M ATP with CPDA, each marked with a randomly assigned food dye color (Betty Crocker). The position of each colored solution in the reservoir was also randomized. Mosquitoes were used once in a test and then aspirated for determination of engorgement. Several attractant candidates were compared one on one with each other, and with CO2 in the flight tunnel to evaluate efficacy.

A further experiment deals with mosquitoes. The conditions noted are these: compared with matching control traps baited with CO2; cited from earlier work.
The subject of experiment [2] is female Aedes aegypti. Description: K&D module high-throughput feeding assay. The class given is in vivo. The conditions noted are these: Deet standard (4.54 nmol/μl); five females/cell. As to the method: Highthrouhput Feeding Assay: The K&D module was developed at USDA for evaluating feeding deterrence and toxicity of candidate topical repellents against hemophagus arthropod vectors (Klun, J. A., and M. Debboun, J. Med. Entomol., 37: 177-181 (2000)). In the present study the K&D module was used as a highthrouhput screening tool to evaluate response of Ae. aegypti to attractant\feeding stimuli.
In vitro bioassays were conducted as described by Klun et. al., 2000. […] The three treatments were randomly assigned to consecutive cells in 2,6-cell reservoirs connected in series to a single water-bath pump; thus, 4 replicates could be tested/run.
Tests were performed in an Air Science USA hood, with an air movement velocity of approx. 110-120 ft./min., temperature of 25-27° C., and RH of 15-25%. A six-celled reservoir was connected to and heated by a constant-temperature (38° C.) water circulator (Lauda E100, Wobser GMGH and Co., Konigshofell, Germany).
Prior to each test, the upper surface of each reservoir was coated with a thin layer of high-vacuum silicone grease (Dow Corning Corp., Midland, Mich.), and the cells then filled (approx. 6 ml. capacity) or topped-off with the following: (1) expired human red blood cells suspended in citrate-phosphate-dextrose-adenine (CPDA) solution, not more than 1 month past expiration date, and to which 110 mg ATP/35 ml. blood-CPDA had been added on the day of testing; or (2) CPDA+ATP×10^−3, usually made up or diluted to 10^−3 ATP on the day of testing.
The filled cells were then covered with an Edicol collagen membrane strip (Devro, Sandy Run, S.C.), and then with a just-treated (110 μl of 4.54 nmol/μl treatment or control solution) organdy cloth strip (G Street Fabrics, Rockville, Md.).
Mosquitoes used in the tests were either Aedes aegypti (Liverpool) or Aedes albopictus (Asian Tiger mosquitoes (ATMs)). Ae. aegypti and Ae. albopictus were originally obtained from colonies at the Walter Reed Army Institute of Research (WRAIR), Silver Spring, Md., and were maintained in colonies at the Beltsville Agricultural Research Center, USDA, ARS, Beltsville, Md. The larvae were reared (Gerber, E. J., et al., Manual for mosquito rearing and experimental techniques, Am. Mosq. Control Assoc. Bull. 5 (revised), AMCA, Inc., Lake Charles, La. (1994)) by feeding larvae ground tropical fish pellets (Hikari Cichlid Gold Fish Food, Kamihata Fish Ind. Ltd., Himeji, Japan, www.hikari.info). Adults were held at 12:12 h (light:dark) photoperiod at 26° C. and 50% RH, and fed with a cotton pad moistened with 10% aqueous sucrose solution. For both species, adult mosquitoes used in the tests were between 5-10 days old, and were kept on water pads only for 24 hrs. prior to testing. Ae. aegypti used in a given test session were all loaded into K&D modules at one time, with five adult females/cell, and tested within I-2 hrs.
K&D modules containing five adult females/cell were placed over a Teflon separator atop each reservoir; the sliding floors opened allowing access to the treated organdy cloth and membrane-covered cell, and the number of mosquitoes biting (proboscis inserted through the cloth) and/or observed to be engorged within each cell at the end of a 3-5 min. exposure period was recorded. Mosquitoes were used only once in a test, and then frozen and discarded.
Only tests in which three or more females fed in the control cell were analyzed, as lower feeding rates are indicative of substandard feeding readiness of that group of mosquitoes.
Feeding/probing responses observed on control, standard, and experimental compound-treated cells were compared using an R-code statistical analysis (Chauhan, K. R., et al., Journal of Medical Entomology, 42: 643-646 (2005)).

[3] abbreviates: 0.1% concentration, paired with CO2 (dry ice) + air.
The mark [4] stands for this setting: 1% concentration, paired with CO2 (dry ice) + air.
Where [5] appears, read: CO2 (dry ice) + air paired with 0.1% Okoumal.
The mark [6] stands for this setting: CO2 (dry ice) + air paired with 0.1% cyclopentanone.
Where [7] appears, read: CO2 (dry ice) + air paired with 1% Okoumal.
[8] abbreviates: CO2 (dry ice) + air paired with 1% cyclopentanone.
Where [9] appears, read: CO2 (dry ice) + air paired with air.

Consider nine compounds from patent US10952434B2, “Compositions and methods for attracting insects” (The United States of America, as Represented by the …, priority 2016, dated 2021).

For the compound `COC1(OC)CCCCC1` [Compound I-182], the entries for the “fed (mean of triplicates)” value in the experiment on female Aedes aegypti [1] (1.00% concentration) and in the experiment on female Aedes aegypti [1] (5% concentration) were 2.7 and 2, respectively. In addition, the “probed (mean of triplicates)” value in the experiment with female Aedes aegypti [1] (1.00% concentration) was found to be 5.7; in the experiment with female Aedes aegypti [1] (5% concentration), 12.3.

As to `CC1COC2(CCCC2)O1` (centres unmarked) [Compound I-95], in the experiment with female Aedes aegypti [1] (1.00% concentration), the “fed (mean of triplicates)” value is reported as 3.3 and the “probed (mean of triplicates)” value is 12. Besides, in the experiment with female Aedes aegypti [1] (5% concentration), the “fed (mean of triplicates)” value is 3.3 and the “probed (mean of triplicates)” value was 8.3.

Consider `O=C1CCCC1` [cyclopentanone, reference compound], for which the mean fed in the experiment with female Aedes aegypti [1] (setting [3]) turned out to be 2.6; in the experiment on female Aedes aegypti [1] (setting [4]), 2.1. Moreover, the mean probed is 2.2 in the experiment on female Aedes aegypti [1] (setting [3]) and 2.8 in the experiment with female Aedes aegypti [1] (setting [4]). For the same compound, the “fed (mean of triplicates)” value in the experiment on female Aedes aegypti [1] (0.10% concentration) is on record as 3; in the experiment on female Aedes aegypti [1] (1.00% concentration), 2; in the experiment on female Aedes aegypti [1] (5% concentration), 1. Besides, the results for the “probed (mean of triplicates)” value in the experiment with female Aedes aegypti [1] (0.10% concentration), in the experiment on female Aedes aegypti [1] (1.00% concentration) and with female Aedes aegypti [1] (5% concentration) were 7, 5.7 and 1.7, respectively. The “attractiveness of baited traps, in words” value in the experiment with mosquitoes is “equivalent to that of matching control traps baited with CO2”.

On to `O=C=O` [CO2 (dry ice), Carbon dioxide, reference compound], for which the mean fed with female Aedes aegypti [1] (setting [5]) is 3; with female Aedes aegypti [1] (setting [6]), 2.8; in the experiment on female Aedes aegypti [1] (setting [7]) it was 2; in the experiment on female Aedes aegypti [1] (setting [8]), 2.1; in the experiment on female Aedes aegypti [1] (setting [9]) it was 1.8. For the same compound, the mean probed is listed as 3.7 in the experiment on female Aedes aegypti [1] (setting [5]); 3.1 in the experiment with female Aedes aegypti [1] (setting [6]); 2.2 with female Aedes aegypti [1] (setting [7]); 2.3 in the experiment on female Aedes aegypti [1] (setting [8]); 2.1 in the experiment with female Aedes aegypti [1] (setting [9]).

Turning to `O=C1CCCCC1` [cyclohexanone, reference compound], in the experiment on female Aedes aegypti [1] (1.00% concentration), the “fed (mean of triplicates)” value is 0.3 and the “probed (mean of triplicates)” value came to 0.7. In the experiment with female Aedes aegypti [1] (5% concentration), the “fed (mean of triplicates)” value came to 1.7 and the “probed (mean of triplicates)” value came to 3.7.

On to `C1CCC2(C1)OCCO2` [Compound I-90], for which the “fed (mean of triplicates)” value was determined as 2.7 in the experiment on female Aedes aegypti [1] (0.10% concentration), 4 in the experiment on female Aedes aegypti [1] (1.00% concentration) and 3 with female Aedes aegypti [1] (5% concentration). Also, the “probed (mean of triplicates)” value with female Aedes aegypti [1] (0.10% concentration) is 5.7; with female Aedes aegypti [1] (1.00% concentration) it was 8.3; with female Aedes aegypti [1] (5% concentration) it was 8.7. For the same compound, the “feeding attraction, in words” value in the experiment with female Aedes aegypti [1] is recorded as “consistent feeding attraction”.

In the experiment with female Aedes aegypti [2], `CCN(CC)C(=O)c1cccc(C)c1` [Deet, reference compound] had a mean fed of 0.1 and a mean probed of 0.1.

With `COC1(OC)CCCC1` [Compound I-152], in the experiment with female Aedes aegypti [1] (1.00% concentration), the “fed (mean of triplicates)” value came out at 0.7 and the “probed (mean of triplicates)” value is listed as 1.3. Also, in the experiment on female Aedes aegypti [1] (5% concentration), the “fed (mean of triplicates)” value was 1 and the “probed (mean of triplicates)” value is reported as 1.7.

As to `CC1COC2(CCCCC2)O1` (centres unmarked) [Compound I-96], the “fed (mean of triplicates)” value with female Aedes aegypti [1] (0.10% concentration) is 3; with female Aedes aegypti [1] (1.00% concentration), 2.7; with female Aedes aegypti [1] (5% concentration) it was 2.7. Moreover, the “probed (mean of triplicates)” value in the experiment on female Aedes aegypti [1] (0.10% concentration) is 6.3; in the experiment on female Aedes aegypti [1] (1.00% concentration) it was 8.3; in the experiment with female Aedes aegypti [1] (5% concentration) it was 12.7. Also, the “feeding attraction, in words” value in the experiment on female Aedes aegypti [1] was “consistent feeding attraction”.
